# Laboratory results: patent US8841281B2, “Transition metal complexes of amino acids and related ligands and their use as catalysts, anti-microbials, and anti-cancer agents” (Virginia Tech Intellectual Properties, Inc., priority 2011, dated 2014)
# Read-outs that look alike come from different tables or passages of the source.
# Experiments:
# MRSA = test: Activity against MRSA strains (Table VIIIB, compounds used alone); format: cell-based, Staphylococcus aureus; conditions: for activity against MRSA when used alone: ligand compound used alone, not complexed
# S. Aur = test: Activity against S. Aur (Table VIIIB); format: cell-based, Staphylococcus aureus
# E. coli = test: MIC of complexes against E. coli; format: cell-based
# M. chelonae = test: 96 well plate dilution test, MIC against M. chelonae; format: cell-based
# [1] = system: methicillin-resistant Staphylococcus aureus (MRSA); test: 96 well plate dilution test, MIC against MRSA; format: cell-based; conditions: Pd(AA)2 complexes against MRSA
# Protocol: Biological activities of complexes of Formula 1 were tested against various strains of bacteria using the following general procedure. It is noted that complexes of Formula 2 and Formula 3 were tested using the same procedure. Generally, 96 well plate dilution tests were performed using a 96-well plate consisting of 8 rows and 12 columns. Each well is charged with the test organism in the appropriate growth medium. The test complex is also dissolved in the test medium and the first well is charged with sufficient complex solution to provide a concentration of 250 ug/mL. […] Well 12 is used as a control with no test complex. The plates are incubated for 48 hrs in the case of bacteria and 4-5 days in the case of mycobacteria. The wells are read using a spectrophotometer measuring turbidity at 540 nm. A high optical density indicates significant cell growth while a low optical density indicates significant inhibition. All results reported are normalized in terms of inhibition of cell growth and reported as MICs.
# Biological activity is expressed in terms of the Minimum Inhibitory Concentration (MIC) in units of micrograms per mL. The MIC is the lowest concentration of the complex at which full inhibition of organism growth is observed.
# Octahedral iridium(III) complexes of Formula 2 were tested against various strains of bacteria using the procedure described above for Formula 1. Biological activity is expressed in terms of the MIC in units of micrograms per mL.
# M. smegmatis = test: 96 well plate dilution test, MIC against M. smegmatis; format: cell-based
# M. abscessus = test: 96 well plate dilution test, MIC against M. abscessus; format: cell-based
# [2] = system: Mycobacterium intracellulare
# [3] = system: Mycobacterium avium strain A5
# [4] = system: Mycobacterium abscessus strain AAy-P-1
# [5] = system: Mycobacterium marinum ATCC 927
# [6] = system: Mycobacterium bovis strain BCG; format: cell-based
# [7] = system: Mycobacterium smegmatis strain mc^2155; format: cell-based
# [8] = system: Mycobacterium chelonae strain EO-P-1
# [9] = system: mycobacteria, Staphylococcus aureus and methicillin-resistant S. aureus (MRSA); conditions: among Ir, Ru, Rh L-α-amino acid complexes
# [10] = Ruthenium piano stool complexes
Molecule,Minimal Inhibitory Concentration (MIC) M. intracellulare [2] [µg/mL],Minimal Inhibitory Concentration (MIC) M. avium [3] [µg/mL],Minimal Inhibitory Concentration (MIC) M. abscessus [4] [µg/mL],Minimal Inhibitory Concentration (MIC) M. marinum [5] [µg/mL],Minimal Inhibitory Concentration (MIC) M. smegmatis [7] [µg/mL],Minimal Inhibitory Concentration (MIC) M. chelonae [8] [µg/mL],also measured
"CN(C)CCN [4 (N,N-dimethyl ethylenediamine)]",–,–,–,–,–,–,Activity (MIC) MRSA PI-1 (MRSA; strain PI-1): >250 µg/mL; Activity (MIC) MRSA PI-34380 (MRSA; strain PI-34380): >250 µg/mL; Activity (MIC) MRSA PI-34864 (MRSA; strain PI-34864): >250 µg/mL; Activity (MIC) MRSA PI-36361 (MRSA; strain PI-36361): >250 µg/mL; Activity (MIC) MRSA PI-43300 (MRSA; strain PI-43300): >250 µg/mL; Activity (MIC) MRSA PI-52300 (MRSA; strain PI-52300): >250 µg/mL; Activity (MIC) MRSA PI-53016 (MRSA; strain PI-53016): >250 µg/mL; Activity (MIC) S. Aur (S. Aur): >250 µg/mL
C1=CCCC=CCC1.C[P](C)(C)[Ir+]([P](C)(C)C)[P](C)(C)C.[Cl-] [Ir(COD)(PMe3)3],–,–,–,–,–,–,MIC ug/mL E. coli (E. coli): 60 µg/mL
Cc1c(C)c(C)[c-](C)c1C.NC(Cc1ccc(O)cc1)C(=O)[O-].[Cl-].[Ir+3] [Ir(Cp*)L-Tyr],–,–,–,–,–,–,M. chelonae MIC (M. chelonae; Iridium piano stool complexes): Inactive
"CN(C)CCN [N,N-dimethylethylenediamine, reference compound]",–,–,–,–,–,–,activity against MRSA when used alone (MRSA): not active
"CNCCN [N-methylethylenediamine, reference compound]",–,–,–,–,–,–,activity against MRSA when used alone (MRSA): not active
CC(N)C(=O)[O-].CC(N)C(=O)[O-].[Pd+2] (stereo not drawn) [Pd(Ala)2],–,–,–,–,–,–,MIC [1]: inactive
"O=C([O][Pd][O]C(=O)C1CCCN1)C1CCCN1 (stereo not drawn) [Pd(Pro)2, bis-prolinato palladium(II)]",–,–,–,–,–,–,MIC [1]: 7.5 µg/mL
NC(CO)C(=O)[O-].NC(CO)C(=O)[O-].[Pd+2] (stereo not drawn) [Pd(Ser)2],–,–,–,–,–,–,MIC [1]: inactive
CC(C)C(N)C(=O)[O-].Cc1ccc(C(C)C)cc1.[Cl-].[Ru+2] [Ru(p-cymene)Val],–,–,–,–,–,–,M. smegmatis MIC (M. smegmatis; [10]): 7.5 µg/mL; M. chelonae MIC (M. chelonae; [10]): 7.5 µg/mL; M. abscessus MIC (M. abscessus; [10]): 7.5 µg/mL
CC(N)C(=O)[O][Ru][Cl].Cc1ccc(C(C)C)cc1 [Ru(p-cymene)ala],–,–,–,–,–,–,M. smegmatis MIC (M. smegmatis; [10]): 7.5 µg/mL; M. chelonae MIC (M. chelonae; [10]): 7.5 µg/mL; M. abscessus MIC (M. abscessus; [10]): 7.5 µg/mL
CC(C)CC(N)C(=O)[O-].Cc1ccc(C(C)C)cc1.[Cl-].[Ru+2] [Ru(p-cymene)leu],–,–,–,–,–,–,M. smegmatis MIC (M. smegmatis; [10]): 3.9 µg/mL; M. chelonae MIC (M. chelonae; [10]): 7.5 µg/mL; M. abscessus MIC (M. abscessus; [10]): 7.5 µg/mL
"CC[C@@H](CO)NCCN[C@@H](CC)CO [ethambutol, reference compound]",–,–,–,–,–,–,activity against MRSA when used alone (MRSA): not active
"NCCN [ethylenediamine, reference compound]",–,–,–,–,–,–,activity against MRSA when used alone (MRSA): not active
Cp*IrCl (D-Proline) [1 (D-pro)],>250,>250,>250,>250,>250,>250,Minimal Inhibitory Concentration (MIC) M. bovis [6]: >250 µg/mL
Cp*IrCl (Glycine) [1 (L-gly)],>250,>250,125,>250,61,125,–
Cp*IrCl (L-Alanine) [1 (L-ala)],61,>250,31,>250,15,61,M. smegmatis MIC (M. smegmatis; Iridium piano stool complexes): 7.5 µg/mL; M. chelonae MIC (M. chelonae): 7.5 µg/mL; Minimal Inhibitory Concentration (MIC) M. bovis [6]: 31 µg/mL; M. abscessus MIC (M. abscessus; Iridium piano stool complexes): 7.5 µg/mL
Cp*IrCl (L-Leucine) [1 (L-leu)],32,>250,32,>250,32,32,M. smegmatis MIC (M. smegmatis; Iridium piano stool complexes): 3.9 µg/mL; M. chelonae MIC (M. chelonae): 3.9 µg/mL
Cp*IrCl (L-Phenylalanine) [1 (L-phe)],–,–,–,–,–,–,relative anti-mycobacterial / antibiotic activity [9]: highest activity
Cp*IrCl (L-Phenylglycine) [1 (L-phengly)],15,>250,31,>250,5,10,Minimal Inhibitory Concentration (MIC) M. bovis [6]: 10 µg/mL; relative anti-mycobacterial / antibiotic activity [9]: highest activity
Cp*IrCl (L-Proline) [1 (L-pro)],61,125,15,>250,10,15,M. smegmatis MIC (M. smegmatis; Iridium piano stool complexes): 3.9 µg/mL; M. chelonae MIC (M. chelonae): 7.5 µg/mL; Minimal Inhibitory Concentration (MIC) M. bovis [6]: 15 µg/mL; M. abscessus MIC (M. abscessus; Iridium piano stool complexes): 3.9 µg/mL; relative anti-mycobacterial / antibiotic activity [9]: highest activity
Cp*IrCl (L-Serine) [1 (L-ser)],–,>250,–,–,>250,–,M. chelonae MIC (M. chelonae): Inactive
Cp*IrCl (L-Trans-4-Hydroxyproline) [1 (L-hyp)],–,>250,–,–,>250,–,–
Cp*IrCl (L-Valine) [1 (L-val)],>250,>250,61,>250,17,31,M. smegmatis MIC (M. smegmatis; Iridium piano stool complexes): 3.9 µg/mL; M. chelonae MIC (M. chelonae): 7.5 µg/mL; Minimal Inhibitory Concentration (MIC) M. bovis [6]: 31 µg/mL; M. abscessus MIC (M. abscessus; Iridium piano stool complexes): 7.5 µg/mL
Cp*IrCl (N-methyl-Glycine) [1 (L-N-methylgly)],–,>250,–,–,>250,–,–
Napthalenediamine [reference compound],–,–,–,–,–,–,activity against MRSA when used alone (MRSA): active
"[Ir(COD)(N,N-dimethylethylenediamine)]Cl [3 (N,N-methyl en)]",>250,>250,>250,>250,>250,>250,MIC (gram positive MRSA): >250 µg/mL; Minimal Inhibitory Concentration (MIC) M. bovis [6]: >250 µg/mL
[Ir(COD)(N-methylethylenediamine)]Cl [3 (N-methyl en)],>250,>250,>250,>250,>250,>250,MIC (gram positive MRSA): 16.2 µg/mL; Minimal Inhibitory Concentration (MIC) M. bovis [6]: >250 µg/mL
[Ir(COD)(ethambutol)]Cl [3 (EMB)],>250,>250,61,>250,61,61,MIC (gram positive MRSA; gram positive MRSA): 8.1 µg/mL
[Ir(COD)(ethylenediamine)]Cl [3 (en)],61,>250,61,>251,125,61,MIC (gram positive MRSA; gram positive MRSA): 8.1 µg/mL
palladium(II) bis-valine [Pd(Val)2],–,–,–,–,–,–,MIC [1]: 9.0 µg/mL
